In ChEMBL document CHEMBL1201862, “PubChem BioAssay data set” (2004):
Activity calls are given as the source filed them.

Tests used:
Caspase-6 = Caspase-6 (Homo sapiens, UniProt P55212); experiment: human caspase-6 inhibitors, dose response, biochemical, VEID-R110 fluorescence, cherry-pick (AID 720632)
[1] = NIH-3T3 fibroblast cytotoxicity, dose response, cytotoxicity control, cell-based, fluorescence, Alamar Blue, secondary assay (AID 2327); assay type: functional;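 further: NIH-3T3 mouse fibroblasts cultured with fluconazole at 8 µg/mL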
Beta-galactosidase = Beta-galactosidase (Escherichia coli, UniProt Q8VNN2); experiment: beta-galactosidase enzyme inhibitors and activators, dose response, artefact control for CCR6 antagonist project, biochemical, E. coli enzyme, set 3 (AID 504712); assay type: functional
Sequence of Beta-galactosidase (Q8VNN2 whole entry): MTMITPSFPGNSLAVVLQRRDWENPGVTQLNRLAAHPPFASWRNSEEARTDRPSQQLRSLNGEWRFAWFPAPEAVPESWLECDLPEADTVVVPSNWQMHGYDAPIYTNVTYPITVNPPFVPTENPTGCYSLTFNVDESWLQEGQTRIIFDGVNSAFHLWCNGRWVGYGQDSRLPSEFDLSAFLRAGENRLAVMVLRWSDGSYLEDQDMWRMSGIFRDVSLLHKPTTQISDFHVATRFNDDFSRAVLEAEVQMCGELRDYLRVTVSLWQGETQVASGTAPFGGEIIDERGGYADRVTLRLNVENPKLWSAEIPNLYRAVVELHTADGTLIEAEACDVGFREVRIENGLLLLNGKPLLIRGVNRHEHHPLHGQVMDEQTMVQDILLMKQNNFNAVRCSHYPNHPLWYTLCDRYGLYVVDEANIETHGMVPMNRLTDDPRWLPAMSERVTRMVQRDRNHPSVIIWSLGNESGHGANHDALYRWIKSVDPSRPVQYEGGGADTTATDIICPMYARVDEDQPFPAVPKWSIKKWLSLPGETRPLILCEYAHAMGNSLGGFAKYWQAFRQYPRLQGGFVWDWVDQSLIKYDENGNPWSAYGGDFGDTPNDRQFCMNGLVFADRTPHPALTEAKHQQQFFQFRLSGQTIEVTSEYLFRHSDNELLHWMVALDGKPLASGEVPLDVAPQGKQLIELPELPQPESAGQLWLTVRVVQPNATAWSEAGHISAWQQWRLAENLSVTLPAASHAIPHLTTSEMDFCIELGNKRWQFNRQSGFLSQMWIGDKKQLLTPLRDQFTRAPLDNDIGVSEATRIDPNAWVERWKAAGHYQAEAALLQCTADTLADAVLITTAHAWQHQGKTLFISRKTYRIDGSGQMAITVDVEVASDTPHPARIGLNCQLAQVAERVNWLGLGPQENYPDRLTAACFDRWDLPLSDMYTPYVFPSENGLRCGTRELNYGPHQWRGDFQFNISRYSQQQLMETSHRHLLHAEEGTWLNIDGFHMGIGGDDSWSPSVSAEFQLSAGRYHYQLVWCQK

Exodeoxyribonuclease V = Exodeoxyribonuclease V (Escherichia coli (strain K12), UniProt P04993+P07648+P08394); experiment: E. coli RecBCD inhibitors, dose response, counter-screen for AddAB inhibitor project, absorbance, V66 E. coli, mutant T4 phage (AID 492957); assay type: functional, cell-based, Escherichia coli str. K-12 substr. MG1655
[2] = molecular target: T1, Replicative DNA helicase DnaB (Mycobacterium tuberculosis, UniProt P9WMR3); experiment: DnaB intein splicing inhibitors, dose response, biochemical, cell-free fluorescence (AID 449749); assay type: functional
T1 sequence (P9WMR3 whole entry): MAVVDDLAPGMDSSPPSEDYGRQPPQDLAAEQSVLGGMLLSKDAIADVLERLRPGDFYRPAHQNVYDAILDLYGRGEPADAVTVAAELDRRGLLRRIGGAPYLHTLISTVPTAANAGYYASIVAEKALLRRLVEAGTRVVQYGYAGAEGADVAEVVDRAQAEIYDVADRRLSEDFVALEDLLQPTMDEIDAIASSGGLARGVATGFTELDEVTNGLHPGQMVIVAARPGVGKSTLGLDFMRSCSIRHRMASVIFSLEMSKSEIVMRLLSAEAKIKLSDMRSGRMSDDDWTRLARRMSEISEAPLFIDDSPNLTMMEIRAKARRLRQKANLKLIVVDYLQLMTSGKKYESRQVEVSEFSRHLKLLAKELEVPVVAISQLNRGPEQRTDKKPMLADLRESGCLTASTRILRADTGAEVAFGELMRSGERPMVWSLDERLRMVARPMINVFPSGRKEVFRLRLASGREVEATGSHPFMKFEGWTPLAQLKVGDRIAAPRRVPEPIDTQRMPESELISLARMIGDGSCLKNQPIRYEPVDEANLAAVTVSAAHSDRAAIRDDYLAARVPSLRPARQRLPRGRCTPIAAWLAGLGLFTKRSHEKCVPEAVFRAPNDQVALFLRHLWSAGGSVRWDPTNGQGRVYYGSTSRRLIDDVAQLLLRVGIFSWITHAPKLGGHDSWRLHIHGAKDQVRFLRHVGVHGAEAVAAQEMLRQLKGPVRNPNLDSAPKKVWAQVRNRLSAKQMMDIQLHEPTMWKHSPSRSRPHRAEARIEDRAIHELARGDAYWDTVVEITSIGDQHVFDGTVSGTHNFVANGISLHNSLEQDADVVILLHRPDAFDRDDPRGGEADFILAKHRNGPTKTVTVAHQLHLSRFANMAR

[3] = molecular target: T2, C-C chemokine receptor type 6 (Homo sapiens, UniProt P51684); experiment: CCR6 receptor antagonists, dose response, cell-based, luminescent beta-arrestin readout (AID 504728); assay type: functional
T2 sequence (P51684 whole entry): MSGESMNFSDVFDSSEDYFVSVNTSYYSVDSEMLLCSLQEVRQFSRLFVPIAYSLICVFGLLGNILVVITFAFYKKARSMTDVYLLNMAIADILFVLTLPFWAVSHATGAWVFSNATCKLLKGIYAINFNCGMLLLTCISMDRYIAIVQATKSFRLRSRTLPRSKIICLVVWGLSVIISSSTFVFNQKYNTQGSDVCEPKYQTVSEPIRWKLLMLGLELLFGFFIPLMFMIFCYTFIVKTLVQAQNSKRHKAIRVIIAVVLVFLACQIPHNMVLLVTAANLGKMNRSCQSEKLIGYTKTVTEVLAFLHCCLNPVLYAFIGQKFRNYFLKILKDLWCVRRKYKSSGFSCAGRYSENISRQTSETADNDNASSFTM

[4] = molecular target: ATP-dependent molecular chaperone HSP82 (Candida albicans (strain WO-1) (Yeast), UniProt C4YTQ8); experiment: loss of DOC-induced GRE-beta-galactosidase reporter signal, dose response, Hsp90 inhibitor project, S. cerevisiae, luminescence (AID 2400); assay type: functional, cell-based;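 further: beta-galactosidase luminescence from glucocorticoid response element reporter as proxy for Hsp90 function; inhibitor potency where signal loss means Hsp90 inhibition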
Sequence of ATP-dependent molecular chaperone HSP82 (C4YTQ8 whole entry): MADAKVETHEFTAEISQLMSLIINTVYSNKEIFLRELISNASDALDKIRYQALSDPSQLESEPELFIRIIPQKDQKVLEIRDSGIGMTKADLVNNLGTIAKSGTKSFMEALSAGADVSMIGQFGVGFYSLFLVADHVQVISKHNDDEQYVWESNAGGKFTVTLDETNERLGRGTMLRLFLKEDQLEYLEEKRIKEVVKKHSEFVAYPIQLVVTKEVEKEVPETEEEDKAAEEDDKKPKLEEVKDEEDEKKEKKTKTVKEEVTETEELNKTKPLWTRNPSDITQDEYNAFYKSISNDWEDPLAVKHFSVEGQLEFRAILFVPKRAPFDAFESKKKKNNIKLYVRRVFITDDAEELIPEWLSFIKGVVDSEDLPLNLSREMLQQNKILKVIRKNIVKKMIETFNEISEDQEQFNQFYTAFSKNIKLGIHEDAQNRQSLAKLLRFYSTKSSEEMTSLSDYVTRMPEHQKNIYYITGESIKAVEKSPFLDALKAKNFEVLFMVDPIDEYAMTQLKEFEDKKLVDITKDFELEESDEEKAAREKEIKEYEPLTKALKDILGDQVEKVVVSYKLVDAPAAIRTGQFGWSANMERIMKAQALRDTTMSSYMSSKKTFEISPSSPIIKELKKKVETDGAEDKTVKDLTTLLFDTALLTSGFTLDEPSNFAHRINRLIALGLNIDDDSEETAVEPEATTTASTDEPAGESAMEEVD

Protein RecA = molecular target: T3, Protein RecA (Mycobacterium tuberculosis, UniProt P9WHJ3); experiment: Fluorescence Cell-Free Homogeneous Dose Retest to Identify Inhibitors of RecA-Intein Splicing Activity. [Related pubchem assays (depositor defined):AID2097, AID2223, AID489010, AID492950]; assay type: functional
T3 sequence (P9WHJ3 whole entry): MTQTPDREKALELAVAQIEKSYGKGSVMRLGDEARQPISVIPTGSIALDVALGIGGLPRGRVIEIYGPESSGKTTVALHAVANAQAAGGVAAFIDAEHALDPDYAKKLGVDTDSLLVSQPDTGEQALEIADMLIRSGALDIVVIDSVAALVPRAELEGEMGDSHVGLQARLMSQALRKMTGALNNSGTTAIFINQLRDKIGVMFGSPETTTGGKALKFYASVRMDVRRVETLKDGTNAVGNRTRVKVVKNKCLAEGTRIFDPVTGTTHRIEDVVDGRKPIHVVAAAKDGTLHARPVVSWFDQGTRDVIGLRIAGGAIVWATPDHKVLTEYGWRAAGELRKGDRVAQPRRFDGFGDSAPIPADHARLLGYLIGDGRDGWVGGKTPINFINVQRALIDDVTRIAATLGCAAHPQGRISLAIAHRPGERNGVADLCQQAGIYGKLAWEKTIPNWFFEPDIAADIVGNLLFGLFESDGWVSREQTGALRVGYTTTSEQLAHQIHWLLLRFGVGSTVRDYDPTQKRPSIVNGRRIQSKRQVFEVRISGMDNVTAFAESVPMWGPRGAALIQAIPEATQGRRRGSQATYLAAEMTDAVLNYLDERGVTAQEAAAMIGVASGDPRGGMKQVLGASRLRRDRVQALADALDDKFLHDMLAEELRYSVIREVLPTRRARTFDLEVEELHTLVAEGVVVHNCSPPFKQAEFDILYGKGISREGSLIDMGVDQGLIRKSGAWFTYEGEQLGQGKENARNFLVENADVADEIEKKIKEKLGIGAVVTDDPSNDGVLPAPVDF

[5] = Counterscreen for AddAB inhibitors: absorbance-based bacterial cell-based high throughput dose response assay for inhibitors of bacterial viability. [Related pubchem assays (depositor defined):AID435030, AID449728, AID449731, AID488942, AID488955, AID488956]; assay type: functional
[6] = molecular target: Serine/threonine-protein phosphatase (Candida dubliniensis (strain CD36 / CBS 7987 / NCPF 3949 / NRRLY-17841) (Yeast), UniProt B9W6M3); experiment: calcineurin pathway inhibitors in yeast reporter, dose response, S. cerevisiae, CDRE-lacZ, luminescence, secondary (AID 2388); assay type: functional, cell-based;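 further: yeast reporter cells carrying a calcineurin-responsive lacZ construct stimulated with calcium chloride; luminescent beta-galactosidase reporter signal in whole cells rather than isolated phosphatase activity; potency for inhibition where a drop in reporter signal means calcineurin blockade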
Sequence of Serine/threonine-protein phosphatase (B9W6M3 whole entry): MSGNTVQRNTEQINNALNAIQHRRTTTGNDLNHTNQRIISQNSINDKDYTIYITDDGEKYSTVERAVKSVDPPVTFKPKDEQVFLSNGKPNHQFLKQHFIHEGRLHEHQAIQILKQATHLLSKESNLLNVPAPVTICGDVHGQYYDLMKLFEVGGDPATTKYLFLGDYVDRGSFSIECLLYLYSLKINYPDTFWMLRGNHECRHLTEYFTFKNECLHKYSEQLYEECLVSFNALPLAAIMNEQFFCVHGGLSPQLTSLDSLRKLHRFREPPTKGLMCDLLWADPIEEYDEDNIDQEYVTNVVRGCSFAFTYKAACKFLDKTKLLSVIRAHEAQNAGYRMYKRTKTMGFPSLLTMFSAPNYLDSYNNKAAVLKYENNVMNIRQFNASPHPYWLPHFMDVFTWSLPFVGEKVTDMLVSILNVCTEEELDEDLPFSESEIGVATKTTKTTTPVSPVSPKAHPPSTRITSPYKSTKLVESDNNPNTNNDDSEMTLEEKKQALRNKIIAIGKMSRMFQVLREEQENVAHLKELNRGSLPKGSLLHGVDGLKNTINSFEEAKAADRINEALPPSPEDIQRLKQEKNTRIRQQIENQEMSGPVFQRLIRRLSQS

[7] = C. albicans growth with fluconazole, confirmation, fluorescence, retest (AID 2467); assay type: functional, cell-based
[8] = molecular target: T4, Sentrin-specific protease 8 (Homo sapiens, UniProt Q96LD8); experiment: SENP8 protease inhibitors, SAR follow-up, biochemical, luminescence (AID 504501); assay type: functional
T4 sequence (Q96LD8 whole entry): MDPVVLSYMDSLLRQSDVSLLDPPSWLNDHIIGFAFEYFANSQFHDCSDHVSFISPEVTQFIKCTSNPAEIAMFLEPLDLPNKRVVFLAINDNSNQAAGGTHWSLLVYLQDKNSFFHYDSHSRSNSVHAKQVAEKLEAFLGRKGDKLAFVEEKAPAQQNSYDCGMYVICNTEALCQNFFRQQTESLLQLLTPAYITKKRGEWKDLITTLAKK

[9] = molecular target: T5, Sentrin-specific protease 6 (Homo sapiens, UniProt Q9GZR1); experiment: SAR Analysis of small molecule inhibitors of Sentrin-specific protease 6 (SENP6) using a Luminescent assay. [Related pubchem assays (depositor defined):AID2582, AID2599]; assay type: functional
T5 sequence (Q9GZR1 whole entry): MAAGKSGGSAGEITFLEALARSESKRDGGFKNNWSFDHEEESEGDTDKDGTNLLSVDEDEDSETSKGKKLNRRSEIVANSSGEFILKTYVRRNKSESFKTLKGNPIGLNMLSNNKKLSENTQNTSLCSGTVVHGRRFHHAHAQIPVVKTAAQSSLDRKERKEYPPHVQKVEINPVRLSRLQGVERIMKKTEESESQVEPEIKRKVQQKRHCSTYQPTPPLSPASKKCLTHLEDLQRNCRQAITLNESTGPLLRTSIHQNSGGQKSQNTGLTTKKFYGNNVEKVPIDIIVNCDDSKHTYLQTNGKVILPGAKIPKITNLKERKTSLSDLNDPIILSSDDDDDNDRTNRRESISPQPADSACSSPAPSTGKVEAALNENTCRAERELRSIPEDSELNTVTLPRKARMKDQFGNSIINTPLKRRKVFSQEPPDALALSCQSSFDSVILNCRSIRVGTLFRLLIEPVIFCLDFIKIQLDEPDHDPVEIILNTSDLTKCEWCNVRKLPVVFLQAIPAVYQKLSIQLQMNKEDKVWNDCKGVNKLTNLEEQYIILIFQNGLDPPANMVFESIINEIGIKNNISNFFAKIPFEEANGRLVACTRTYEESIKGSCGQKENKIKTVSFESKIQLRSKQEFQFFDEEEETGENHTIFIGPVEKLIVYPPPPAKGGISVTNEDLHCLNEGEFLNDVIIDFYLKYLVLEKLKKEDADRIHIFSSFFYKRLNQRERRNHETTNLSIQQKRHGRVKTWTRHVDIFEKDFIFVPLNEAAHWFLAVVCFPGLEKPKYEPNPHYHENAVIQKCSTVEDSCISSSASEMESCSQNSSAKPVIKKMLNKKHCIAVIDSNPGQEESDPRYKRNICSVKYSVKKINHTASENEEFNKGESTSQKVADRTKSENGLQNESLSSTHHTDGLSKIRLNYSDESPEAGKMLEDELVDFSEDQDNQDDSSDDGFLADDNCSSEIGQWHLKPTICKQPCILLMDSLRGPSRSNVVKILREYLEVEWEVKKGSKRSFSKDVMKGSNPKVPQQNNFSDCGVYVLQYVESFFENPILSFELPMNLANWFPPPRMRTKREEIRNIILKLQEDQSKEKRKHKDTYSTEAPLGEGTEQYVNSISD

Caspase-3 = molecular target: T6, Caspase-3 (Homo sapiens, UniProt P42574); experiment: SAR Analysis of small molecule inhibitors of Sentrin-specific proteases (SENPs) using a Caspase-3 Selectivity assay. [Related pubchem assays (depositor defined):AID2540, AID2599, AID434973, AID489001]; assay type: functional
T6 sequence (P42574 whole entry): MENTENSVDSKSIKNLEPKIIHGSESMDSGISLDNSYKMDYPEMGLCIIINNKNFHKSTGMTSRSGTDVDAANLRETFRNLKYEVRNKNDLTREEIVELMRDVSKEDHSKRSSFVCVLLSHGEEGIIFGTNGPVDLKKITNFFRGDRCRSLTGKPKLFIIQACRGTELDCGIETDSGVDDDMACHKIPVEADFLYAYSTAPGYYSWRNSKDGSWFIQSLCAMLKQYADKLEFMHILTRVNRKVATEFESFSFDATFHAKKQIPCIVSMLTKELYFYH

[10] = molecular target: T7, Sentrin-specific protease 7 (Homo sapiens, UniProt Q9BQF6); experiment: SENP7 protease inhibitors, SAR follow-up, biochemical, luminescence (AID 504497); assay type: functional
T7 sequence (Q9BQF6 whole entry): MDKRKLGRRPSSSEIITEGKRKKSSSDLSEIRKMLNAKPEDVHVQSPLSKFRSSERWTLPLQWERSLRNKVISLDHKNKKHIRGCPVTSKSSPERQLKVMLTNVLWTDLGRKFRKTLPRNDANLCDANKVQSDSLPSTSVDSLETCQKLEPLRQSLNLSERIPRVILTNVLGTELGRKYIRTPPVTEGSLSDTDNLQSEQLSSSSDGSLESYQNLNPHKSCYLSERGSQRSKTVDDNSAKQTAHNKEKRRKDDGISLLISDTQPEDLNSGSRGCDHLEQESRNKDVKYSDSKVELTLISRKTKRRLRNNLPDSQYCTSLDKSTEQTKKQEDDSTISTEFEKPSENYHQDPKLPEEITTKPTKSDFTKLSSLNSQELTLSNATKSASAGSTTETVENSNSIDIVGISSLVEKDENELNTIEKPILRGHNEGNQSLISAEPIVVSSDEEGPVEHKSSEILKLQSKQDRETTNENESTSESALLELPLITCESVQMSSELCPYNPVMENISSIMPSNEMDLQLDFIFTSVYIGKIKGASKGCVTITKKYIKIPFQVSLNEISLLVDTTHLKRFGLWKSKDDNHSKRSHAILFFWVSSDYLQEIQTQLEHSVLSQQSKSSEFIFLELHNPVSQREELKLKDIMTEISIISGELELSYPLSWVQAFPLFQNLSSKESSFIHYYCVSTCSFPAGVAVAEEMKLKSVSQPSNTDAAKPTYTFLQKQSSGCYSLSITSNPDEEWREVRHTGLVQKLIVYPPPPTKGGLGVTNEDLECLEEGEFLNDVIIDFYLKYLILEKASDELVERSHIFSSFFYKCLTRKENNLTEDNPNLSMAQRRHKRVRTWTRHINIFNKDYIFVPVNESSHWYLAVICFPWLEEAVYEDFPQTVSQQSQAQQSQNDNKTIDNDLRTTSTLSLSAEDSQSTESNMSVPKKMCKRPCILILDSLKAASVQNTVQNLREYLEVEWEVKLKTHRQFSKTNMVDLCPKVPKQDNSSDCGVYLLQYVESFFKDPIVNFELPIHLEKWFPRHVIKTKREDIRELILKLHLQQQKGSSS

Sequence of Caspase-6 (P55212 24-179 limits assumed): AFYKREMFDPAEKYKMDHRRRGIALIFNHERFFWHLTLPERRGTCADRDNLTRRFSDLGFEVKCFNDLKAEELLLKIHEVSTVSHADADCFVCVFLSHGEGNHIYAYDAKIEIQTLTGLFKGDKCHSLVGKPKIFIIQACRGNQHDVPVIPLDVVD
Sequence of Caspase-6 (P55212 194-293 limits assumed): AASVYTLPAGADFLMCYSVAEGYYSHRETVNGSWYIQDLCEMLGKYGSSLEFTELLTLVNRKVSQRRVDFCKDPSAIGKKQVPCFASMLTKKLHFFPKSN

SMILES	AC50 (Caspase-6)	EC50 [1]	IC50 (Beta-galactosidase)	IC50 (Exodeoxyribonuclease V)	AC50 [2]	IC50 [3]	EC50 [4]	EC50 (Protein RecA)	IC50 [5]	EC50 [6]	EC50 [7]	IC50 [8]	IC50 [9]	IC50 (Caspase-3)	IC50 [10]
O=[N+]([O-])c1cc(O)c2ncccc2c1	17.3 µM (active)	42.1 µM (active)	> 66.6 µM (inactive)	62.3 µM (inactive)	6.95 µM (active)	> 66.6 µM (inactive)	18.5 µM (active)	4.6 µM (active)	41.5 µM (inactive)	> 180 µM (inactive)	0.706 µM (active)	–	–	–	–
CCN=C(S)NNC(=O)c1cc(-c2cc(C)ccc2C)nc2ccccc12	–	129 µM (active)	–	–	–	–	> 150 µM (inactive)	–	–	> 180 µM (inactive)	0.296 µM (active)	–	–	–	–
O=C(Nc1nc2ccc(Cl)cc2s1)C1CCCCC1	–	–	–	–	–	–	–	–	–	–	–	> 99 µM (inactive)	> 99 µM (inactive)	> 99 µM (inactive)	> 99 µM (inactive)
COc1cc(OC)cc(-c2noc(/C=C/c3ccccc3Cl)n2)c1	–	–	–	–	–	–	–	–	–	–	–	> 99 µM (inactive)	> 99 µM (inactive)	> 99 µM (inactive)	> 99 µM (inactive)
